From EP1276895B1, “METHOD FOR THE IDENTIFICATION OF ACTIVE SITE PROTEASE INACTIVATORS” (THE UNIVERSITY OF GEORGIA RESEARCH FOUNDATION, INC., priority 2000, dated 2001)
Residues, ends and D or L forms follow the SMILES beside them. *: point of attachment. AFC = O=c1cc(C(F)(F)F)c2ccc(N*)cc2o1; Cbz = O=C(OCc1ccccc1)*; CH2F = FC*

What was measured:
[1] = system: purified Taenia solium cysteine protease; test: Differential cleavage (selectivity) test, T. solium protease; format: biochemical
Experimental: (§1) In order to perform the assay, the vehicle (for Step VI) or inhibitor (for Step IX) were incubated with the appropriate substrate in the correct assay buffer and allowed to equilibrate. Subsequently, the protease was added, and the assay was allowed to incubate for an appropriate time. The concentrations used in this experiment were as follows: Vehicle was set up at 4 X 10^-5 M in final assay buffer; Inhibitor was set up at 3 X 10^-10 M in the final assay buffer. Accordingly, the dosages employed should be the minimal amount of vehicle or inhibitor necessary to induce inhibition. […] Substrates were set up based upon the preferred substrate for cleavage of the particular enzyme.
(§2) Positive controls were set up similarly as described for test controls, except that solvent was added in substitution for the inhibitor or vehicle (in a volume equal to the volume of inhibitor or vehicle addition). All of the inhibitors and vehicles could be dissolved in dimethylsulfoxide (DMSO), and therefore, this was the solvent of choice. Negative controls were set up by adding the inhibitor or vehicle and the preferred substrates in a tube without the protease. All potential non-proteolytic liberation of AFC was therefore controlled for in this tube (a feature which also insured stability of the AFC substrates, since these substrates will freely liberate AFC when unstable).
(§3) All controls were set up in triplicate, and experiments were repeated a minimum of five times.
(§4) Percent inhibition was calculated as: % Inhibition = ((AFC positive for ʺSIʺ-AFC negative for ʺSIʺ)-(AFC test-AFC negative for ʺSIʺ))/(AFC positive for ʺSIʺ-AFC negative for ʺSIʺ) × 100 [formula] In this preliminary test, we employed the following human-derived enzymes (with indicated mechanistic class): Cathepsin B (cysteine), Cathepsin L (cysteine), Cathepsin H (cysteine), Cathepsin D (aspartic) Trypsin (serine), the purified Taenia solium cysteine protease, and the Taenia solium crude mix. Cathepsin B was prepared in an assay buffer of 10 mM L-cysteine in 0.4 M Citrate buffer, pH 6.1, using Z-ARR-AFC as the cleavage substrate. Cathepsin L was prepared in an assay buffer of 10 mM L-cysteine in 0.4 M Citrate buffer, pH 5.5, using Z-FR-AFC as the cleavage substrate. Cathepsin H was prepared in an assay buffer of 10 mM L-cysteine in 0.15 M PBS buffer, pH 6.8, using L-R-AFC as the cleavage substrate. Cathepsin D was prepared in an assay buffer of 0.15 M PBS, pH 7.1, using Z-RGFFP-AFC as the cleavage substrate. Trypsin was prepared in an assay buffer of 0.15 M PBS, pH 8.0, supplemented with 100 mM CaCl2 and with Z-R-AFC as the cleavage substrate. Enzyme was incubated so that it was at least 50 times less than the concentration of substrate in order to insure saturating conditions.

[2] = molecular target: T1, Cathepsin H (cysteine) (Homo sapiens, UniProt P09668); test: Differential cleavage (selectivity) test, Cathepsin H; format: biochemical; conditions: 0.15 M PBS pH 6.8, 10 mM L-cysteine, substrate L-R-AFC; for inhibition at 0.0003 µM: inhibitor 3 X 10^-10 M
T1 sequence (P09668 98-335): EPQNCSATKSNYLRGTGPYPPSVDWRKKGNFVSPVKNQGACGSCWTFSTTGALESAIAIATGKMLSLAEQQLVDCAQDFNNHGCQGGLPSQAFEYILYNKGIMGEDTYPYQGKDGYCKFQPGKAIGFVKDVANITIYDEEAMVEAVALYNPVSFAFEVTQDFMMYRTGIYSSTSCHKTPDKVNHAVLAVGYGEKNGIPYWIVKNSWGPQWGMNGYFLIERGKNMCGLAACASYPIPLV
Experimental: as §1, §2, §3, §4

[3] = system: Trypsin (serine); test: Differential cleavage (selectivity) test, Trypsin; format: biochemical, human; conditions: 0.15 M PBS pH 8.0, 100 mM CaCl2, substrate Z-R-AFC
Experimental: as §1, §2, §3, §4

[4] = molecular target: Cathepsin D (aspartic) (Homo sapiens, UniProt P07339); test: Differential cleavage (selectivity) test, Cathepsin D; format: biochemical; conditions: 0.15 M PBS pH 7.1, substrate Z-RGFFP-AFC; for inhibition at 0.0003 µM: inhibitor 3 X 10^-10 M
Sequence of Cathepsin D (aspartic) (P07339 65-412): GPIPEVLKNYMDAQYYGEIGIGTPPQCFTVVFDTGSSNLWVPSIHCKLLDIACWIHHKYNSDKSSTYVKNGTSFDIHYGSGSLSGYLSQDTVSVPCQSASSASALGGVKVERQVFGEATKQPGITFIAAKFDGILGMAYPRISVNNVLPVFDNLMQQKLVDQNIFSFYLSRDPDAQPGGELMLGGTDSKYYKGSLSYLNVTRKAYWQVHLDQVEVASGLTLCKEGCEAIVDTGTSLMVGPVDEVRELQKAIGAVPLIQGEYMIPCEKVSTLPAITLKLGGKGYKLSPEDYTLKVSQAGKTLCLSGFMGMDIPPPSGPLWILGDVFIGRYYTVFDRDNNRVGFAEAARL
Experimental: as §1, §2, §3, §4

[5] = inhibitor 3 X 10^-10 M, 0.0003 µM

Molecule	% Inhibition ([1]; vehicle 4 X 10^-5 M)	inhibition at 40 µM ([2]; vehicle 4 X 10^-5 M)	% Inhibition ([3]; vehicle 4 X 10^-5 M, 40 µM)	inhibition at 40 µM ([4]; vehicle 4 X 10^-5 M)	% Inhibition ([1]; inhibitor 3 X 10^-10 M)	inhibition at 0.0003 µM [2]	% Inhibition [3, 5]	inhibition at 0.0003 µM [4]	% Inhibition ([2]; vehicle 4 X 10^-5 M, 40 µM)	% Inhibition ([4]; vehicle 4 X 10^-5 M, 40 µM)
CC(C)C[C@H](NC(=O)OCc1ccccc1)C(=O)N[C@@H](CC(C)C)C(=O)N[C@@H](Cc1ccc(O)cc1)C(=O)Nc1ccc2c(C(F)(F)F)cc(=O)oc2c1 [Z-LLY-AFC, Z-Leu-Leu-Tyr-AFC] (Cbz-Leu-Leu-Tyr-{AFC})	70%	0%	0%	0%						
CC(C)C[C@H](NC(=O)OCc1ccccc1)C(=O)N[C@@H](CC(C)C)C(=O)N[C@@H](Cc1ccc(O)cc1)C(=O)CF [Z-LLY-FMK, Z-Leu-Leu-Tyr-FMK] (Cbz-Leu-Leu-Tyr-CH2F)					62%	0%	0%	0%		
CC(C)C[C@H](NC(=O)[C@H](CC(C)C)NC(=O)[C@H](CC(C)C)NC(=O)OCc1ccccc1)C(=O)CF [Z-LLL-FMK, Z-Leu-Leu-Leu-fluoromethylketone] (Cbz-Leu-Leu-Leu-CH2F)					98%	0%	0%	0%		
Mu-Leu-Tyr-AFC [Mu-LY-AFC]	75%		0%						0%	0%
CC(C)C[C@H](NC(=O)OCc1ccccc1)C(=O)N[C@@H](CC(C)C)C(=O)N[C@@H](CC(C)C)C(=O)Nc1ccc2c(C(F)(F)F)cc(=O)oc2c1 [Z-LLL-AFC, Z-Leu-Leu-Leu-AFC] (Cbz-Leu-Leu-Leu-{AFC})	68%	0%	0%	0%						
